Data published in the CATMoS acute toxicity set (Mansouri et al. 2021).

Test: GHS categories as the set defines them, by LD50: 1 up to 5, 2 up to 50, 3 up to 300, 4 up to 2000, 5 above 2000 mg/kg
Details: rat; in vivo; po

| SMILES | GHS category |
| --- | --- |
| C/C=C(\C)C(=O)O[C@H]1C[C@@H](OC(C)=O)[C@@]2(C(=O)OC)CO[C@H]3[C@@H](O)[C@@](C)([C@]45O[C@@]4(C)[C@H]4C[C@@H]5O[C@@H]5OC=C[C@@]54O)[C@H]4[C@]1(CO[C@]4(O)C(=O)OC)[C@@H]32 | 5 |
| Cc1cccc2ncc(C(=O)N3CCCC3)c(=O)n12 | 3 |
| CC(=O)Nc1ccc(Cc2ccccn2)c([N+](=O)[O-])c1 | 3 |
| CCCC1OC(Cn2cncn2)(c2cc3ccccc3o2)OCC1CC (stereo unspecified) | 4 |
| Clc1ccc(N/C(=N/C2CCCCC2)c2ccccc2)cc1Cl | 5 |
| C=COC(=O)CCCCC(C)(C)C | 5 |
| COP(=O)(OC)Oc1ccc(Cl)cc1Cl | 3 |
| COc1ccc(C2(c3ccc(OC)c(Cl)c3)NC(=O)NC2=O)cc1 (stereo unspecified) | 5 |
| Cc1cccn2c(=O)c(C(=O)NC3CCCC3)cnc12 | 3 |
| CC(=O)C(=O)CC(C)C | 5 |
| CSc1nc2cc(Cl)ccc2o1 | 5 |
| CCCCCCCC1CCCC1=O (stereo unspecified) | 5 |
| CCCc1nc2ccnn2c(N)c1Cc1ccc(-c2ccccc2-c2nn[nH]n2)cc1 | 4 |
| Nc1ncc(Br)cc1O | 5 |
| CN[C@@H]1[C@H](O)[C@H](NC)[C@H]2O[C@@]3(O)C(=O)C[C@@H](C)O[C@H]3O[C@@H]2[C@H]1O | 5 |
| C[Si](Cl)(Cl)C1CCCCC1 | 5 |
| N[C@@H](CC(=O)N1CCn2c(nnc2C(F)(F)F)C1)Cc1cc(F)c(F)cc1F | 5 |
| CC(C)C1C(=O)N(c2ccccc2)N(c2ccc(O)cc2)C1=O (stereo unspecified) | 4 |
| CCN(C(=O)Oc1cccc(NC(=O)OC(C)C)c1)c1ccccc1 | 5 |
| CCC(=O)OC/C=C(\C)CCC=C(C)C | 5 |
| O=C(CCl)Nc1nc2cc(Cl)ccc2o1 | 4 |
| CCCC(=O)OC | 5 |
| NCCCC[C@H](OP(=O)(O)CCCCc1ccccc1)C(=O)N1CCC[C@H]1C(=O)O | 5 |
| C=CC(C)C(=O)OCC (stereo unspecified) | 5 |
| O=S(=O)(O)c1cc(-n2ncc(-c3ccccc3)n2)ccc1C=Cc1ccc(-n2ncc(-c3ccccc3)n2)cc1S(=O)(=O)O | 5 |
| CCNC(=O)[C@@H]1CCCN1C(=O)[C@H](CCCNC(=N)N)NC(=O)[C@H](CC(C)C)NC(=O)[C@@H](CC(C)C)NC(=O)[C@H](Cc1ccc(O)cc1)NC(=O)[C@H](CO)NC(=O)[C@H](Cc1c[nH]c2ccccc12)NC(=O)[C@H](Cc1cnc[nH]1)NC(=O)[C@@H]1CCC(=O)N1 | 5 |

| SMILES | GHS category |
| --- | --- |
| CCOC(=O)C1=C(C)NC(CCl)=C(C(=O)OCC)C1c1cccc([N+](=O)[O-])c1 (stereo unspecified) | 4 |
| O=C1c2ccccc2CN2C(=O)c3ccccc3CN12 | 5 |
| CCCCCCCCCCCC1CC(O)=C(CCCCCC)C(=O)O1 (stereo unspecified) | 5 |
| CC1=C(CCC(=O)O)c2cc3[nH]c(cc4nc(cc5[nH]c(cc1n2)c(C)c5C(C)O)C(C)=C4C(C)O)c(C)c3CCC(=O)O (stereo unspecified) | 5 |
| CC(=O)OC1CN(C)C(=O)N1c1cc(C(C)(C)C)no1 (stereo unspecified) | 4 |
| CC(=O)OC1CCC2(C)C(CCC3(C)C2C(=O)C=C2C4CC(C)(C(=O)O)CCC4(C)CCC23C)C1(C)C (stereo unspecified) | 5 |
| NC(=O)c1ccc(NC(=O)c2ccc([N+](=O)[O-])cc2)cc1 | 5 |
| O=C(Nc1ccc(NC(=O)c2cc3ccccc3c(N=Nc3ccc(Cl)cc3[N+](=O)[O-])c2O)c(Cl)c1)c1cc2ccccc2c(N=Nc2ccc(Cl)cc2[N+](=O)[O-])c1O | 5 |
| CS(=O)(=O)c1ccc(C(=O)C2C(=O)CCCC2=O)c(Cl)c1 | 5 |
| C(=C\c1ccccc1)/CN1CCN(C(c2ccccc2)c2ccccc2)CC1 | 5 |
| CC1(C)Oc2cc(C(=O)c3ccc(Cl)cc3)ccc2NC1=O | 5 |
| CCO[Si](CC(C)CC(C)(C)C)(OCC)OCC (stereo unspecified) | 5 |
| O=C(O)c1cccc2cccc(-c3cccc4cccc(C(=O)O)c34)c12 | 5 |
| O=c1oc2ccc(Cl)cc2n1CO | 4 |
| O=c1cc[nH]c(=O)[nH]1 | 5 |
| CN1CCN(C2=NS(=O)(=O)c3cc(Cl)ccc3N2)CC1 | 5 |
| CNC(=O)C(=NNc1cc([N+](=O)[O-])ccc1OC)C(C)=O | 5 |
| C[S+](C)CC[C@@H](N)C(=O)O (racemic) | 5 |
| CSCC[C@H](NC(=O)[C@H](Cc1c[nH]c2ccccc12)NC(=O)CCNC(=O)OC(C)(C)C)C(=O)N[C@@H](CC(=O)O)C(=O)N[C@@H](Cc1ccccc1)C(N)=O | 3 |
| Cc1ccc(C(=O)NS(=O)(=O)c2ccc(N)cc2)cc1C | 5 |
| CCN(CC)c1ccc(C=NN(c2ccccc2)c2ccccc2)cc1 | 5 |
| CC(=O)Nc1ncc([N+](=O)[O-])s1 | 4 |
| N#Cc1c(Cl)nc(Cl)c(C#N)c1-c1ccccc1 | 5 |
| C=C(C)C(CC=C(C)C)COC(=O)C=C(C)C (stereo unspecified) | 5 |
| CCCOc1nn(C(=O)NS(=O)(=O)c2ccccc2C(=O)OC)c(=O)n1C | 5 |
| CC(C)(C)C1CCC(C2=C(O)c3ccccc3C(=O)C2=O)CC1 (stereo unspecified) | 5 |

| SMILES | GHS category |
| --- | --- |
| CNC(=O)Oc1ccc(N(C)C)c(C)c1 | 2 |
| CCCCCCCSCCCCN1CCCCCC1=O | 5 |
| Clc1ccc(C(Cn2ccnc2)OCc2ccc(Sc3ccccc3)cc2)c(Cl)c1 (stereo unspecified) | 5 |
| CCCOC(=O)Cc1ccc(OCC(=O)N(CC)CC)c(OC)c1 | 5 |
| CO[Si](OC)(C1CCCC1)C1CCCC1 | 5 |
| CC(=O)O[C@@H]1C(=O)O[C@@H]2[C@H]1OC(=O)[C@@H]2OC(C)=O | 5 |
| C/C=C(\C)C(=O)OCC | 5 |
| COc1ccc(-c2ccccc2)cc1NNC(=O)OC(C)C | 5 |
| C[C@@H]1C[C@H]2C3C[C@H](F)C4=CC(=O)C=CC4(C)[C@@]3(F)[C@@H](O)CC2(C)[C@@]1(O)C(=O)COC(=O)C(C)(C)C (stereo partly specified) | 5 |
| CCCCOC(=O)c1ccc(-n2nc(OCCN(C)C)c3ccccc32)cc1 | 4 |
| CC(=O)Nc1cc(NS(=O)(=O)C(F)(F)F)c(C)cc1C | 5 |
| CNc1cccc(NC(=O)C(=O)O)c1C#N | 5 |
| CCOc1nc(F)cc2nc(S(=O)(=O)Nc3c(Cl)cccc3C(=O)OC)nn12 | 5 |
| O=S(=O)(O)c1ccc(/N=N/c2cc(CO)c(O)c(/N=N/c3ccc(S(=O)(=O)O)c4ccccc34)c2O)c2ccccc12 | 5 |
| O=C(O)c1ccccc1N=Cc1ccccc1 | 4 |
| CC1=C(C/C=C(\C)CCC[C@H](C)CCC[C@H](C)CCCC(C)C)C(=O)c2ccccc2C1=O | 5 |
| CC(C)COC(=O)CC(C)C | 5 |
| CCCc1c(Cc2ccc(-c3ccccc3-c3nn[nH]n3)cc2)c(N)nc2ncnn12 | 4 |
| CC(=O)CC(=O)Nc1cc(Cl)c(NC(=O)CC(C)=O)cc1C | 5 |
| C[C@]12C[C@H]3O[C@H]3CC1CCC1C2CC[C@]2(C)C(=O)[C@@H](N3CCCC3)CC12 (stereo partly specified) | 5 |
| CCCCCCCCCCCCCCCC(=O)O[C@@H]1C[C@@H](C(=O)O)N(C(=O)CCCCCCCCCCCCCCC)C1 | 5 |
| CC1CCCCC1 | 5 |
| COC(=O)C1=C(C)NC(C)=C(C(=O)OC(C)C)C1c1cccc2nonc12 (stereo unspecified) | 5 |
| CCN(C(=O)CCCCc1nnnn1-c1ccccc1)C1CCCCC1 | 4 |
